System: New Zealand albino rabbits
Assay: IOP recovery after hypertonic saline infusion (ocular hypertensive rabbit model)
Format: in vivo
Settings: 50 µl instilled in eye
Description: 1981, vol 13 pp72-79. New Zealand albino rabbits of either sex were used in the study. A 20 % hypertonic saline solution was infused at the speed of 1 ml […] for 10 minutes through the marginal ear vein with an infusion pump. […] Then the IOP of both eyes were measured with a Tono-Pen XL Tonometer (Mentor, Norwell , MA) at 30 minute and 10 minute intervals before the experiment. At the time of commencement, as well as at 10, 20, 40, 60, and 80 min intervals measurements were taken. Then measurements were repeated at every 30 minute intervals. […] The IOP recovery curve acquired had shifted to the right and below the curve of the controlled group.

**Q.** Which IOP recovery time (0.5% drop solution, 20 % hypertonic saline infusion) does the source give for `CCN1CCCC1CNC(=O)c1cc(S(N)(=O)=O)ccc1OC` (centres unmarked) [Sulpiride] here?
**A.** The IOP recovery time was “didn't show a significant ability in decreasing IOP”.

**Q.** And the “decreasing IOP” value (20% drop solution)?
**A.** The value was “it did so when the concentration was raised to 20%”.
